This is an account of results in patent publication US20230203043A1, “NOVEL IMIDAZOPYRAZINE DERIVATIVES” (Hoffmann-La Roche Inc., priority 2020, published 2023).

SMILES strings stand for the structures. Structures can show the parent of a compound that is named as a salt. Where two headings read alike, the source gives them in different places.

In the assay the test system is Acinetobacter baumannii ATCC17961. Briefly: Antimicrobial susceptibility testing: 90% growth inhibitory concentration (IC90) determination in Iso-Sensitest broth, OD600 growth. The format is cell-based. The settings on record: Acinetobacter baumannii, ATCC17961, 16 h. In outline:
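OD600 read every 20 min for 16 h at 35±2° C; inhibition taken in log phase to derive IC90. Twofold, 10-point dilutions (e.g. 50–0.097 μM final), inoculum ~5×10^(5) CFU/ml.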

The mark [1] stands for this setting: strain ATCC 17961, OD600 growth over 16 h, read-out: A. baumannii ATCC 17961 IC90.
[2] abbreviates: read-out: A. baumannii ATCC 17961 IC90 (uM), strain ATCC 17961, OD600 growth over 16 h.

By IC90 is commonly meant the point of the concentration-response curve where the effect stands at 90%. `N#CCn1cc(-c2cnc3c(Nc4ccc(C(=O)N5CC6(CN(C(=O)CN)C6)C5)c(Cl)c4)nccn23)c(C(F)(F)F)n1` [Example 659, 2-(4-(8-((3-chloro-4-(6-glycyl-2,6-diazaspiro[3.3]heptane-2-carbonyl)phenyl)amino)imidazo[1,2-a]pyrazin-3-yl)-3-(trifluoromethyl)-1H-pyrazol-1-yl)acetonitrile]: under setting [1], the 90% effect concentration (IC90) was 0.27 µM. For the compound `CCc1cc(Nc2nccn3c(-c4cn(CC(F)F)nc4C(F)(F)F)cnc23)ccc1C(=O)NCCNC(=O)CCN` [Example 536, N-(2-(3-aminopropanamido)ethyl)-4-((3-(1-(2,2-difluoroethyl)-3-(trifluoromethyl)-1H-pyrazol-4-yl)imidazo[1,2-a]pyrazin-8-yl)amino)-2-ethylbenzamide formate], the 90% effect concentration (IC90) under setting [2] is 0.145 µM. In the case of `O=C(c1ccc(N(c2nccn3c(-c4c[nH]nc4C(F)(F)F)cnc23)C(F)F)cc1Cl)N1CCNCC1` [Example 9, [2-chloro-4-[difluoromethyl-[3-[3-(trifluoromethyl)-1H-pyrazol-4-yl]imidazo[1,2-a]pyrazin-8-yl]amino]phenyl]-piperazin-1-ylmethanone], the IC90 under setting [1] came out at 1.05 µM. On the same count and under the same terms, the result for `CCOCCCNC(=O)c1ccc(Nc2nccn3c(-c4c[nH]nc4C(F)(F)F)cnc23)cc1CC` [Example 223, N-(3-ethoxypropyl)-2-ethyl-4-[[3-[3-(trifluoromethyl)-1H-pyrazol-4-yl]imidazo[1,2-a]pyrazin-8-yl]amino]benzamide] reads 1.12 µM. Turning to `CCc1cc(Nc2nccn3c(-c4c[nH]nc4C(F)(F)F)cnc23)ccc1C(=O)NCCNC(=O)CCN` [Example 220, N-[2-(3-aminopropanoylamino)ethyl]-2-ethyl-4-[[3-[3-(trifluoromethyl)-1H-pyrazol-4-yl]imidazo[1,2-a]pyrazin-8-yl]amino]benzamide formate], under setting [2], the IC90 is 0.51 µM. As for `Cc1cc(Nc2nccn3c(-c4cn(CC#N)nc4C(F)(F)F)cnc23)cc(F)c1C(=O)N1CCN(C(=O)[C@H]2[C@@H]3CNC[C@@H]32)CC1` [Example 676, 2-(4-(8-((4-(4-((1R,5S,6r)-3-azabicyclo[3.1.0]hexane-6-carbonyl)piperazine-1-carbonyl)-3-fluoro-5-methylphenyl)amino)imidazo[1,2-a]pyrazin-3-yl)-3-(trifluoromethyl)-1H-pyrazol-1-yl) acetonitrile formate], the concentration for an effect of 90% (IC90) under setting [1] worked out at 0.316 µM. Same read-out and setting: the figure for `CCc1cc(Nc2nccn3c(-c4cn(CC(F)F)nc4C(F)(F)F)cnc23)ccc1C(=O)NCC(=O)N1CCNCC1` [Example 679, 4-[[3-[1-(2,2-difluoroethyl)-3-(trifluoromethyl)pyrazol-4-yl]imidazo[1,2-a]pyrazin-8-yl]amino]-2-ethyl-N-(2-oxo-2-piperazin-1-yl-ethyl) benzamide formate] is 0.322 µM; for `CCc1cc(Nc2nccn3c(-c4cn(CC(F)F)nc4C(F)F)cnc23)ccc1C(=O)NCCOCCN` [Example 122, N-[2-(2-aminoethoxy)ethyl]-4-[[3-[1-(2,2-difluoroethyl)-3-(difluoromethyl)pyrazol-4-yl]imidazo[1,2-a]pyrazin-8-yl]amino]-2-ethylbenzamide] it is 0.208 µM; for `CCc1cc(Nc2nccn3c(-c4cn(CCF)nc4C(F)(F)F)cnc23)ccc1C(=O)NCCOC[C@H](C)N` [Example 158, N-[2-[(2S)-2-aminopropoxy]ethyl]-2-ethyl-4-[[3-[1-(2-fluoroethyl)-3-(trifluoromethyl)pyrazol-4-yl]imidazo[1,2-a]pyrazin-8-yl]amino]benzamide] it is 4.03 µM. On to `N#CCn1cc(-c2cnc3c(Nc4ccc(C(=O)N5CCN(C(=O)C6CCNCC6)CC5)c(Cl)c4)nccn23)c(C(F)(F)F)n1` [Example 366, 2-[4-[8-[3-chloro-4-[4-(piperidine-4-carbonyl)piperazine-1-carbonyl]anilino]imidazo[1,2-a]pyrazin-3-yl]-3-(trifluoromethyl)pyrazol-1-yl]acetonitrile formate], for which the IC90 under setting [2] amounted to 0.296 µM.

`CCc1cc(Nc2nccn3c(-c4cn(CC(F)F)nc4C(F)(F)F)cnc23)ccc1C(=O)NCC(=O)N1CC(N)C1` [Example 733, N-[2-(3-aminoazetidin-1-yl)-2-oxo-ethyl]-4-[[3-[1-(2,2-difluoroethyl)-3-(trifluoromethyl)pyrazol-4-yl]imidazo[1,2-a]pyrazin-8-yl]amino]-2-ethyl-benzamide]: the concentration for an effect of 90% (IC90) under setting [1] amounted to 0.481 µM. Still for that read-out and setting: the result for `O=C(NC1CN(C(=O)c2ccc(Nc3nccn4c(-c5c[nH]nc5C(F)(F)F)cnc34)cc2Cl)C1)[C@@H]1C[C@@H](O)CN1` [Example 175, (2S,4R)-N-[1-[2-chloro-4-[[3-[3-(trifluoromethyl)-1H-pyrazol-4-yl]imidazo[1,2-a]pyrazin-8-yl]amino]benzoyl]azetidin-3-yl]-4-hydroxypyrrolidine-2-carboxamide] reads 0.357 µM; that for `O=C(c1ccc(Nc2nccn3c(-c4cn(C(F)F)nc4C(F)(F)F)cnc23)cc1Cl)N1CCN(C(=O)[C@@H]2CCCN2)CC1` [Example 104, [2-chloro-4-[[3-[1-(difluoromethyl)-3-(trifluoromethyl)pyrazol-4-yl]imidazo[1,2-a]pyrazin-8-yl]amino]phenyl]-[4-[(2S)-pyrrolidine-2-carbonyl]piperazin-1-yl]methanone], 0.227 µM. On the same count and under the same terms, the figure for `O=C(c1ccc(Nc2nccn3c(-c4cn(C(F)F)nc4C(F)(F)F)cnc23)cc1Cl)N1CC2(CNC2)C1` [Example 79, [2-chloro-4-[[3-[1-(difluoromethyl)-3-(trifluoromethyl)pyrazol-4-yl]imidazo[1,2-a]pyrazin-8-yl]amino]phenyl]-(2,6-diazaspiro[3.3]heptan-2-yl)methanone] is 0.222 µM; for `O=C(NC1CNC1)c1ccc(Nc2nccn3c(-c4c[nH]nc4C(F)(F)F)cnc23)cc1Cl` [Example 406, N-(azetidin-3-yl)-2-chloro-4-[[3-[3-(trifluoromethyl)-1H-pyrazol-4-yl]imidazo[1,2-a]pyrazin-8-yl]amino]benzamide] it is 1.4 µM. The same measure, in the same setting: the figure for `C#CCn1cc(-c2cnc3c(Nc4ccc(C(=O)NCCOCCN)c(Cl)c4)nccn23)c(C(F)(F)F)n1` [Example 249, N-[2-(2-aminoethoxy)ethyl]-2-chloro-4-[[3-[1-prop-2-ynyl-3-(trifluoromethyl)pyrazol-4-yl]imidazo[1,2-a]pyrazin-8-yl]amino]benzamide] is 0.047 µM. With `CCc1cc(Nc2nccn3c(-c4cn(CC#N)nc4C(F)(F)F)cnc23)ccc1C(=O)NCC(=O)NCC1(O)CCNCC1` [Example 525, 4-[[3-[1-(cyanomethyl)-3-(trifluoromethyl)pyrazol-4-yl]imidazo[1,2-a]pyrazin-8-yl]amino]-2-ethyl-N-[2-[(4-hydroxy-4-piperidyl)methylamino]-2-oxo-ethyl]benzamide formate], under setting [2], the IC90 turned out to be 0.593 µM. Still for that read-out and setting: the result for `CCc1cc(Nc2nccn3c(-c4c[nH]nc4C(F)(F)F)cnc23)ccc1C(=O)NCCCNC(=O)CCN` [Example 212, N-[3-(3-aminopropanoylamino)propyl]-2-ethyl-4-[[3-[3-(trifluoromethyl)-1H-pyrazol-4-yl]imidazo[1,2-a]pyrazin-8-yl]amino]benzamide formate] reads 0.296 µM; that for `CCc1cc(Nc2nccn3c(-c4c[nH]nc4C(F)(F)F)cnc23)ccc1C(=O)NC1CNC1` [Example 515, N-(azetidin-3-yl)-2-ethyl-4-((3-(3-(trifluoromethyl)-1H-pyrazol-4-yl)imidazo[1,2-a]pyrazin-8-yl)amino)benzamide formate], 0.49 µM. For the compound `CCc1cc(Nc2nccn3c(-c4c[nH]nc4C(F)(F)F)cnc23)ccc1C(=O)NCC(=O)N1CCNCC1` [Example 753, 2-ethyl-N-(2-oxo-2-piperazin-1-yl-ethyl)-4-[[3-[3-(trifluoromethyl)-1H-pyrazol-4-yl]imidazo[1,2-a]pyrazin-8-yl]amino] benzamide formate], the IC90 under setting [1] is 0.659 µM.

`CCc1cc(Nc2nccn3c(-c4cn(CC(F)F)nc4C(F)(F)F)cnc23)ccc1C(=O)NCC(=O)NCC1CCNC1` (stereo not shown) [Example 549, 4-[[3-[1-(2,2-difluoroethyl)-3-(trifluoromethyl)pyrazol-4-yl]imidazo[1,2-a]pyrazin-8-yl]amino]-2-ethyl-N-[2-oxo-2-(pyrrolidin-3-ylmethylamino)ethyl] benzamide formate]: under setting [1], the IC90 was 0.235 µM.

Take `CCc1cc(Nc2nccn3c(-c4cn(CC(F)F)nc4C(F)(F)F)cnc23)ccc1C(=O)NCCOCCCN` [Example 618, N-(2-(3-aminopropoxy)ethyl)-4-((3-(1-(2,2-difluoroethyl)-3-(trifluoromethyl)-1H-pyrazol-4-yl)imidazo[1,2-a]pyrazin-8-yl)amino)-2-ethylbenzamide formate]: under setting [2], the concentration for an effect of 90% (IC90) worked out at 0.129 µM. For `Cc1cc(Nc2nccn3c(-c4cn(CC#N)nc4C(F)(F)F)cnc23)cc(F)c1C(=O)N[C@H](C)CNC(=O)[C@H]1[C@@H]2CNC[C@@H]21` [Example 720, (1R,5S,6r)-N-((R)-2-(4-((3-(1-(cyanomethyl)-3-(trifluoromethyl)-1H-pyrazol-4-yl)imidazo[1,2-a]pyrazin-8-yl)amino)-2-fluoro-6-methylbenzamido)propyl)-3-azabicyclo[3.1.0] hexane-6-carboxamide formate], the concentration for an effect of 90% (IC90) under setting [1] turned out to be 0.441 µM. Still for that read-out and setting: the result for `NCC(=O)N1CCN(C(=O)c2ccc(Nc3nccn4c(-c5cn(CC(F)F)nc5C(F)(F)F)cnc34)cc2F)CC1` [Example 812, 2-amino-1-(4-(4-(3-(1-2,2-difluoroethyl)-3-(trifluoromethyl)-1H-pyrazol-4-yl)imidazo[1,2-a]pyrazin-8-yl)amino)-2-fluorobenzoyl) piperazin-1-yl) ethan-1-one hydrochloride] reads 0.2 µM; that for `O=C(N[C@H]1CCNC1)c1ccc(Nc2nccn3c(-c4c[nH]nc4C(F)(F)F)cnc23)cc1Cl` [Example 378, 2-chloro-N-[(3S)-pyrrolidin-3-yl]-4-[[3-[3-(trifluoromethyl)-1H-pyrazol-4-yl]imidazo[1,2-a]pyrazin-8-yl]amino]benzamide], 0.562 µM.
